Calls of active or inactive are those of the source.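 How the source made its calls: active means IC50 against T. cruzi CYP51 below a set limit; inactive means the rest.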
Target: Sterol 14-alpha demethylase (Trypanosoma cruzi (strain CL Brener)) (UniProt Q7Z1V1)
Experiment: T. cruzi sterol 14-alpha demethylase inhibition – biochemical, recombinant enzyme, mechanism study for T. cruzi antiparasitic project, dose response (AID 1159558);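 further: enzyme in bacterial membranes with Anopheles gambiae CYP reductase and cytochrome b5 partners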
Settings: recombinant T. cruzi CYP51, BOMCC fluorescence

Chain of Sterol 14-alpha demethylase (Trypanosoma cruzi (strain CL Brener)) (Q7Z1V1 whole entry, looked up): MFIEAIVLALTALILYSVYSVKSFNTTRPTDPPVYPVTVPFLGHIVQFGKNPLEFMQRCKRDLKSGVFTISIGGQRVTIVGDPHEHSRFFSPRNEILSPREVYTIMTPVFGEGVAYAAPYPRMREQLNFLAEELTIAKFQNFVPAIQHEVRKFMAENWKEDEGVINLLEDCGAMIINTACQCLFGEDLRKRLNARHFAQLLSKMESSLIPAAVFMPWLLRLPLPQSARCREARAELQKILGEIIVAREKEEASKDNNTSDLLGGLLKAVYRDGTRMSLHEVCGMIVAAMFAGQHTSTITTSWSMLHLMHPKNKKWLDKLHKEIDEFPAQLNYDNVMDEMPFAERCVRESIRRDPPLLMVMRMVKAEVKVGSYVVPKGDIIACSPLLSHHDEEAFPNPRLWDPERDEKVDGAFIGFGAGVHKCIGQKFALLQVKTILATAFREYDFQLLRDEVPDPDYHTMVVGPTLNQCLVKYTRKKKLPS

| SMILES | IC50 |
| --- | --- |
| Cc1cc(Nc2cc(C3CC3)[nH]n2)nc(N2CCCC2)n1 | > 100 µM (inactive) |
| COc1ccc(C(=O)Nc2cc(C(F)(F)F)ccc2N2CCOCC2)c(OC)c1 | > 100 µM (inactive) |
| COC(=O)c1ccc(-c2cnc3ccc(NCc4ccccn4)nn23)cc1 | 1.3 µM |
| CC(C)(C)CC(=O)NCCc1csc(-c2ccc(F)cc2)n1 | 20 µM |
| O=C(c1ccc(Cl)cc1)c1ccc(OC(=O)N2CCOCC2)cc1 | 40 µM |
| CC(C)(C)c1cc(NC2CC2)nc(-c2ccccn2)n1 | > 100 µM (inactive) |
| Cc1nn(-c2nc(N)nc(-c3ccccn3)n2)c(N)c1-c1ccccc1 | > 100 µM (inactive) |
| CN1CCN(c2nc(-c3ccc(Cl)cc3)c3c(N)n(C)nc3n2)CC1 | > 100 µM (inactive) |
| CC(Cn1ccnc1)NC(=O)C=Cc1ccc(Cl)cc1 (centres undefined) | 0.16 µM |
| CN(C)Cc1ccc(N2CCC(NS(=O)(=O)c3ccc(Cl)cc3)CC2)cc1 | > 100 µM (inactive) |
| COc1ccc2ncc(=O)n(CCN3CCC(NCc4ccc(-c5cccs5)cc4)CC3)c2n1 | 25 µM |
| CC(C(=O)Nc1ccc(Br)cc1)N1CCN(c2ccc([N+](=O)[O-])cc2)CC1 (centres undefined) | 40 µM |
| COc1ccc(C(C)(C)C)cc1S(=O)(=O)n1ccnc1 | 0.0079 µM |
| Cc1ccc(S(=O)(=O)Nc2ccc(CN3CCN(C(=O)c4cccc(C)c4)CC3)cc2)cc1 | 79 µM |
| CC(C)Oc1ccc(C(=O)Nc2ccc(N3CCOCC3)c(Cl)c2)cc1 | > 100 µM (inactive) |
| NC(=O)c1cc(F)ccc1Nc1nc(NC2CCC(O)CC2)ncc1Br (centres undefined) | 10 µM |
| Cc1cccnc1CN1CCN(CCCOc2ccc(-c3ccc(C(N)=O)cc3)cc2)CC1 | > 100 µM (inactive) |
| Cc1nn(C2CCS(=O)(=O)C2)c(C)c1CN(C)C(=O)C=Cc1sc2ccccc2c1Cl (centres undefined) | 0.032 µM |
| CN(C)S(=O)(=O)c1cccc(CSc2nnc(-c3ccc4c(c3)OCO4)o2)c1 | 13 µM |
| COc1ccc2nc(N(Cc3cccnc3)C(=O)C3CCC3)sc2c1 | 0.063 µM |
| CCc1c(C)nc(-n2nc(C)cc2NC(=O)COc2ccccc2F)[nH]c1=O | > 100 µM (inactive) |
| COc1ccc(C(=O)Nc2ccc(NC(=O)CO)cc2)cc1 | > 100 µM (inactive) |
| Cn1nc(C(=O)N2CCc3ccccc32)c2c1CCS(=O)(=O)C2 | > 100 µM (inactive) |
| CCOc1ccc(N(C)S(=O)(=O)c2ccc3[nH]cc(C(=O)NC4CCCC4)c(=O)c3c2)cc1 | 6.3 µM |
| O=C(c1ccccc1)N1CCC(C(=O)N2CCC(Oc3ccccc3Cl)CC2)CC1 | 20 µM |
| Cc1[nH]nc(Nc2ccnc3[nH]ccc23)c1C | 79 µM |

| SMILES | IC50 |
| --- | --- |
| O=C(N1CCc2ccccc2CC1)C1(C(=O)N2CCC(n3c(=O)[nH]c4ncccc43)CC2)CC1 | 0.32 µM |
| Nc1nonc1-c1nc2cncc(C(=O)N3CC[C@H](N)C3)c2n1CC1CC1 | 13 µM |
| CC(C)(C)C(Cn1ccnc1)NC(=O)c1ccc2nc(C3CC3)oc2c1 (centres undefined) | 0.1 µM |
| O=C(CN(Cc1ccccn1)Cc1ccccn1)NCc1ccc2c(c1)OCO2 | 100 µM |
| NC(=O)c1cc(F)ccc1Nc1nc(NC2CCC(O)CC2)ncc1Cl (centres undefined) | 32 µM |
| Cc1cc2cc(CNc3ccc4c(c3)OCO4)c(=O)n(CCO)c2cc1C | 10 µM |
| COc1ncc(-c2ccc3nccc(-c4ccncc4)c3c2)cc1NS(C)(=O)=O | 79 µM |
| O=C(c1cnn(-c2ccccc2)n1)N1CCCC(n2ccnc2)C1 (centres undefined) | 0.079 µM |
| Cn1c(CN2CCN(c3ncc(C(F)(F)F)cc3Cl)CC2)nc2ccncc21 | 0.079 µM |
| Cc1nccn1C1CCCN(C(=O)c2cc3c(F)cccc3s2)C1 (centres undefined) | 50 µM |
| COc1ccc(S(=O)(=O)NC(C)C)cc1Nc1ncc(-c2cccc(F)c2)cn1 | > 100 µM (inactive) |
| NC(=O)c1ncc(N[C@@H]2CCCNC2)nc1Nc1cccc(Cl)c1 | > 100 µM (inactive) |
| COc1cccc(C(=O)[C@H]2C[C@@H]2CN(Cc2cccnc2)Cc2cccnc2)c1 | 0.063 µM |
| CCCn1c(NC(=O)CCn2cc(Br)cn2)nc2ccccc21 | 10 µM |
| COc1cc(OC)cc(C(=O)N[C@@H](CC(C)C)C(=O)NC2(C#N)CC2)c1 | > 100 µM (inactive) |
| CCCNC(=O)Nc1cccc(-c2nc3ncccc3o2)c1 | > 100 µM (inactive) |
| COCCn1c(-c2ccccc2)cnc1NCc1ccccc1OC | 7.9 µM |
| CCCCc1cc(Nc2cc(C3CCC3)[nH]n2)nc(N2CCC2C(N)=O)n1 (centres undefined) | > 100 µM (inactive) |
| CS(=O)(=O)c1cccc(CNC(=O)c2cncc(N3CCN(c4ccc(F)cc4)CC3)c2)c1 | 13 µM |
| CNc1cncc(C2CCCN2C(=O)Cc2ccc3ccccc3c2)n1 (centres undefined) | 0.1 µM |
| Fc1ccc(OC2CC(NCc3cccc4cn[nH]c34)C2)cc1C(F)(F)F (centres undefined) | 0.13 µM |
| Cn1c(CC(=O)NNC(=O)c2ccc3ccccc3n2)nc2ccccc21 | 32 µM |
| COc1cccc(Nc2cc(C)nc(-c3ccccn3)n2)c1 | > 100 µM (inactive) |
| CNc1cc(Cn2c(C(=O)c3cc(C)cc(Cl)c3)c(C(C)C)c(=O)[nH]c2=O)ccn1 | 0.032 µM |
| COc1ccc(C2=NCC(CSc3nnc(-c4ccc5c(c4)OCO5)o3)S2)cc1 (centres undefined) | 10 µM |
| CC1=NN(C(=O)CCn2cnc([N+](=O)[O-])n2)C(O)(C(F)(F)F)C1 (centres undefined) | > 100 µM (inactive) |

| SMILES | IC50 |
| --- | --- |
| Cc1nn(-c2ccccc2)nc1CNC(=O)CN(Cc1ccccn1)Cc1ccccn1 | 25 µM |
| COc1ccc(C(=O)NC2CCN(CCn3c(=O)ccc4ncc(F)cc43)CC2)cc1Cl | 16 µM |
| COc1ccc(C2CC(c3ccccc3Cl)=NN2C(=O)CNC(=O)C2CCC2)cc1 (centres undefined) | 50 µM |
| Cc1ccc(NC(=O)c2ccc([N+](=O)[O-])s2)cc1S(=O)(=O)N1CCOCC1 | 20 µM |
| CCc1cccc(CC)c1-n1c(SCC(=O)NC(=O)NCc2ccco2)nnc1-c1cccnc1 | 1 µM |
| COc1ccc(NS(=O)(=O)c2cc(NC(=O)Cc3ccc(C)cc3)ccc2N2CCOCC2)cc1 | > 100 µM (inactive) |
| O=C(CSc1nnc(-c2ccc3c(c2)OCO3)o1)N(Cc1ccco1)CC(F)(F)F | 25 µM |
| Nc1cc(-c2ccc3ncnc(N4CCOCC4)c3c2)cnc1N | 79 µM |
| CC(Cn1ccnc1)NC(=O)COc1ccc(Cl)c(Cl)c1 (centres undefined) | 0.063 µM |
| Nc1nc(-c2ccccn2)nc(N)c1Cc1c(F)cccc1Cl | > 100 µM (inactive) |
| CN(C)S(=O)(=O)c1ccc(-c2cnc(N)c(-c3nc4ccc(F)cc4[nH]3)c2)cc1 | 40 µM |
| COc1ccc(CNc2nsc3ccccc23)cc1OC | 13 µM |
| Clc1ccc(OCCN2CCCCC2c2cccnc2)c(Cl)c1 (centres undefined) | 0.063 µM |
| COc1ccc(C(C)N(C)c2ncc3c(N)nc(N)nc3n2)cc1F (centres undefined) | > 100 µM (inactive) |
| COc1cnc2ccc(=O)n(CCN3CCC(NC/C=C/c4cc(F)ccc4F)CC3)c2c1 | 16 µM |
| CC1CN(S(=O)(=O)c2ccc(NC(=O)c3cc(C4CC4)nc4c3cnn4C(C)C)cc2)CC(C)O1 (centres undefined) | > 100 µM (inactive) |
| Cc1ccc2sc(NC(=O)Cn3cnc([N+](=O)[O-])n3)nc2c1 | > 100 µM (inactive) |
| COCc1cnc2c(c1SCc1c(F)cccc1Cl)c(=O)n(C)c(=O)n2C | 25 µM |
| COc1ccc2ncc(F)c(NC(=O)C3(O)CCC(NCc4ccc5c(c4)OCCO5)CC3)c2n1 (centres undefined) | 63 µM |
| Cc1nn(-c2nc(N)nc(-c3ccccn3)n2)c(C)c1Cc1ccccc1 | 63 µM |
| Cc1cc(C)nc(N2CCC(N(Cc3cccnc3)C(=O)c3cccc(C#N)c3)CC2)n1 | 0.13 µM |
| Cn1nccc1-c1cc(OC(CN)c2ccccc2)cnc1-c1ccco1 (centres undefined) | 0.063 µM |
| COc1ccccc1-c1c(C)[nH]c2nc(N)nc(C)c12 | > 100 µM (inactive) |
| c1ccc2[nH]c(-c3ccc(N4CCCC4)nc3)nc2c1 | > 100 µM (inactive) |
| CC(c1ccc2c(c1)CCCC2)N(C)c1ncc2c(N)nc(N)nc2n1 (centres undefined) | 25 µM |
| CNS(=O)(=O)c1ccccc1Nc1nc(Nc2cc(C)nn2C)ncc1Cl | 25 µM |

| SMILES | IC50 |
| --- | --- |
| O=C(CN1CCN(c2ccccn2)CC1)Nc1cc(S(=O)(=O)N2CCCCCC2)ccc1Cl | 3.2 µM |
| Clc1cc(Br)ccc1OCCCCn1ccnc1 | 0.063 µM |
| O=C(NCCc1csc(-c2cccc(F)c2)n1)c1ccco1 | > 100 µM (inactive) |
| CNc1nc(C)nc(N2CCc3cc(C(=O)NCc4ccc(-c5ccn[nH]5)cc4Cl)ccc32)n1 | 5 µM |
| CN1C(=O)c2ccccc2Sc2ccc(NC(=O)NCc3ccco3)cc21 | 32 µM |
| O=C(CSc1ccc(-c2ccccn2)nn1)Nc1ccc(Cl)cc1 | > 100 µM (inactive) |
| Clc1ccc(C(CC2CCCCO2)Cn2cncn2)c(Cl)c1 (centres undefined) | 0.25 µM |
| O=C(Nc1ccc(Br)c(Cl)c1)Nc1ccc2c(c1)OCO2 | > 100 µM (inactive) |
| Cc1nc(-c2nc(NCc3ccc(Cl)cc3)c3cccnc3c2O)n[nH]1 | 16 µM |
| O=C(Nc1ccc(S(=O)(=O)N2CCCC2)cc1)c1ccc([N+](=O)[O-])s1 | > 100 µM (inactive) |
| CNC(=O)C1Cc2ccccc2N1C(=O)COc1cccc(OC)c1 (centres undefined) | 100 µM |
| O=C(NCCc1nc(-c2ccc(F)c(F)c2)n[nH]1)C1CCCCC1 | 25 µM |
| Cc1cc2nc(N3CC[C@H]3C(N)=O)nc(Nc3cc(C4CC4)[nH]n3)c2s1 | > 100 µM (inactive) |
| CCC(=O)Nc1ccc(-c2nc3ccc(Cl)cc3[nH]2)cc1 | > 100 µM (inactive) |
| CCN(Cc1ccncc1)Cc1ccc(NC(=O)c2cc(-c3ccc(F)cc3)n[nH]2)cc1 | 0.079 µM |
| CN(C)c1ncc(-c2cncn2CCOc2ccc(Cl)cc2)cn1 | 0.05 µM |
| c1ccc(-c2nc(NC3CCCC3)c3ccccc3n2)nc1 | > 100 µM (inactive) |
| CC(C)c1nn(-c2nc(N)nc(-c3ccccn3)n2)c(N)c1C1CCCCC1 | 3.2 µM |
| COc1ccc(C2CC(c3ccccc3Cl)=NN2C(=O)CNC(=O)C2CCCC2)cc1 (centres undefined) | 63 µM |
| O=C1NCc2cccc(Nc3nc(NC4CCC(O)CC4)ncc3Br)c21 (centres undefined) | > 100 µM (inactive) |
| CN(Cc1ccc(F)cc1)c1ccc(OCC(=O)N2CCCCC2c2cccnc2)nn1 (centres undefined) | 0.05 µM |
| Cc1[nH]nc(C(F)(F)F)c1NC(=O)CCn1cc(Cl)c([N+](=O)[O-])n1 | > 100 µM (inactive) |
| Cc1nn2c(NCCCO)c3c(nc2c1-c1cccs1)CCC3 | 25 µM |
| CC(C)(C)Nc1nc(-c2ccccn2)nc2ccccc12 | > 100 µM (inactive) |
| O=C(NC(CO)c1ccc(F)cc1)c1ccc(-c2c[nH]c3ncccc23)s1 (centres undefined) | 1.3 µM |
| Cc1cc(NC(=O)CC2CCCCC2)n(-c2nc3c(c(=O)[nH]2)CCC3)n1 | > 100 µM (inactive) |

Reference: PubChem BioAssay AID1159558 (GlaxoSmithKline (GSK), 2015)
